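Values below derive from 48-hour exposures of cells grown in 96-well plates, with endpoints linearly interpolated between the two concentrations bracketing the appropriate inhibition level. The concentration for 50% growth inhibition is given as GI50.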 The source made the active and inactive calls. No stated cut-off is given here; in the data, active = GI50 up to about 1.1 µM and inactive = higher.
Experiments:
Assay in all cases: growth of human tumour cells (NCI), 48 h
CAKI-1 = test system: CAKI-1
OVCAR-5 = test system: OVCAR-5
NCI/ADR-RES = test system: NCI/ADR-RES
NCI-H226 = test system: NCI-H226
786-0 = test system: 786-0
KM-20L2 = test system: KM-20L2
SK-MEL-5 = test system: SK-MEL-5
XF498 = test system: XF498
NCI-H460 = test system: NCI-H460
LXFL 529 = test system: LXFL 529
A498 = test system: A498
MDA-N = test system: MDA-N
SK-MEL-28 = test system: SK-MEL-28
OVCAR-3 = test system: OVCAR-3
TK-10 = test system: TK-10
OVCAR-4 = test system: OVCAR-4
KM12 = test system: KM12
OVCAR-8 = test system: OVCAR-8
K562 = test system: K562
MOLT-4 = test system: MOLT-4
SN12C = test system: SN12C
UACC-257 = test system: UACC-257
EKVX = test system: EKVX
HCT-116 = test system: HCT-116
DMS-273 = test system: DMS-273
NCI-H23 = test system: NCI-H23
HCT-15 = test system: HCT-15
HL-60 = test system: HL-60
M14 = test system: M14
A549 = test system: A549
RPMI-8226 = test system: RPMI-8226
DLD-1 = test system: DLD-1
UACC-62 = test system: UACC-62
DMS-114 = test system: DMS-114
U-251 = test system: U-251
UO-31 = test system: UO-31
SK-OV-3 = test system: SK-OV-3
SK-MEL-2 = test system: SK-MEL-2
MDA-MB-435 = test system: MDA-MB-435
Malme-3M = test system: Malme-3M
HOP-62 = test system: HOP-62
SF-295 = test system: SF-295
ACHN = test system: ACHN
SR = test system: SR
SF-539 = test system: SF-539
LOX IMVI = test system: LOX IMVI
CCRF-CEM = test system: CCRF-CEM
SNB-78 = test system: SNB-78
NCI-H522 = test system: NCI-H522
DU-145 = test system: DU-145
MDA-MB-231 = test system: MDA-MB-231
SW-620 = test system: SW-620
SF-268 = test system: SF-268
HT-29 = test system: HT-29
RXF 393 = test system: RXF 393
COLO 205 = test system: COLO 205
SNB-75 = test system: SNB-75
HOP-18 = test system: HOP-18
T47D = test system: T47D
MCF7 = test system: MCF7
Hs-578T = test system: Hs-578T
IGROV-1 = test system: IGROV-1
M19-MEL = test system: M19-MEL
HOP-92 = test system: HOP-92
BT-549 = test system: BT-549
SNB-19 = test system: SNB-19
HCC 2998 = test system: HCC 2998
PC-3 = test system: PC-3

Measured: GI50

CC(=O)NC(CCCCN(Cc1ccccc1)C(=O)N(CCCl)N=O)C(=O)NCc1ccccc1 (stereo not given)
> 60.8 µM: HCT-15
active: 786-0 0.895 µM | SR 1.1 µM
inactive: CAKI-1 > 26.8 µM | OVCAR-5 > 67.6 µM | NCI/ADR-RES 14.5 µM | NCI-H226 43.1 µM | KM-20L2 > 52.8 µM | SK-MEL-5 > 100 µM | XF498 > 34.4 µM | NCI-H460 2.22 µM | LXFL 529 > 100 µM | A498 > 100 µM | MDA-N 14.9 µM | SK-MEL-28 45.7 µM | OVCAR-3 60.8 µM | TK-10 44.8 µM | OVCAR-4 68.1 µM | KM12 38.5 µM | OVCAR-8 17.4 µM | K562 36.6 µM | MOLT-4 14.3 µM | SN12C 34.8 µM | UACC-257 24.3 µM | EKVX 61.9 µM | HCT-116 > 49.5 µM | DMS-273 > 35.8 µM | NCI-H23 27.7 µM | HL-60 12.4 µM | M14 41.7 µM | A549 22.1 µM | RPMI-8226 41.7 µM | DLD-1 > 47.9 µM | UACC-62 3.15 µM | DMS-114 > 100 µM | U-251 11.6 µM | UO-31 34.4 µM | SK-OV-3 > 54.3 µM | SK-MEL-2 44.8 µM | MDA-MB-435 35.1 µM | Malme-3M 37.5 µM | HOP-62 17 µM | SF-295 7.21 µM | ACHN 14.3 µM | SF-539 3.38 µM | LOX IMVI 22.2 µM | CCRF-CEM 17.8 µM | SNB-78 > 100 µM | NCI-H522 39 µM | DU-145 25.7 µM | MDA-MB-231 21.9 µM | SW-620 18.5 µM | SF-268 3.48 µM | HT-29 42 µM | RXF 393 14.7 µM | COLO 205 42.2 µM | SNB-75 19.5 µM | HOP-18 25.9 µM | T47D 14.5 µM | MCF7 16.3 µM | Hs-578T 22.2 µM | IGROV-1 39.7 µM | M19-MEL > 67.3 µM | HOP-92 33 µM | BT-549 21.3 µM | SNB-19 16.7 µM | HCC 2998 > 100 µM | PC-3 > 35.5 µM

CCOC(OC1=C(C#N)CCCC1)C(CC)[Se]c1ccccc1[N+](=O)[O-] (stereo not given)
18.5 µM: HCT-15
inactive: CAKI-1 > 100 µM | OVCAR-5 31.4 µM | NCI-H226 17.7 µM | 786-0 17.8 µM | KM-20L2 17.2 µM | SK-MEL-5 15.1 µM | XF498 30.2 µM | NCI-H460 34.2 µM | LXFL 529 26.5 µM | A498 > 100 µM | SK-MEL-28 34 µM | OVCAR-3 26.5 µM | TK-10 76.2 µM | OVCAR-4 17.9 µM | KM12 21.1 µM | OVCAR-8 24 µM | K562 33.6 µM | MOLT-4 25.6 µM | SN12C 19.6 µM | UACC-257 > 100 µM | EKVX 30.8 µM | HCT-116 19.4 µM | DMS-273 20.9 µM | NCI-H23 16.7 µM | HL-60 17.1 µM | M14 17.9 µM | A549 57.5 µM | RPMI-8226 19.5 µM | DLD-1 17.9 µM | UACC-62 22 µM | DMS-114 15.7 µM | U-251 16.6 µM | UO-31 26.8 µM | SK-OV-3 63.8 µM | SK-MEL-2 21 µM | Malme-3M 22.8 µM | HOP-62 32.1 µM | SF-295 22.2 µM | ACHN 29.1 µM | SR 16.7 µM | SF-539 20 µM | LOX IMVI 16 µM | CCRF-CEM 20.6 µM | SNB-78 25.5 µM | NCI-H522 16.3 µM | SF-268 23 µM | HT-29 16.8 µM | RXF 393 28.8 µM | COLO 205 29.6 µM | SNB-75 21.9 µM | HOP-18 26.5 µM | IGROV-1 23.9 µM | M19-MEL 19.1 µM | HOP-92 18.4 µM | SNB-19 29 µM | HCC 2998 17.7 µM
